Legend:
SERCA = assay: Activation of SERCA, NADH-linked, enzyme-coupled ATPase assay with SR vesicles; assay type: biochemical; conditions: concentration required for 50% activation of the maximum Vmax, pH 7.0, 5 mM ATP
Method: Test compounds were characterized over a range of concentrations using an NADH-linked, enzyme-coupled ATPase assay. Each well contained […] of SR vesicles (optimized for skeletal or cardiac SR, respectively), 50 mM MOPS (pH 7.0), 100 mM KCl, 5 mM MgCl2, 1 mM EGTA, 0.2 mM NADH, 1 mM phosphoenol pyruvate, 5 IU pyruvate kinase, 5 IU lactate dehydrogenase, and […] A23187 (a calcium ionophore), and CaCl2 was added to set free [Ca^2+] to the specific values. The assay was started upon addition of ATP at a final concentration of 5 mM, and read in a SpectraMax Plus microplate spectrophotometer and the ATPase activities were fitted using the Hill function. EC50 values were determined as the concentrations of the test compounds that were required for 50% activation of the maximum Vmax.

Ob/ob mice = assay: Effect of a SERCA agonist on the level of blood glucose in ob/ob mice; assay type: in vivo; conditions: n=3; for Blood Glucose Day 0: Day 0 (baseline), fasting glucose, 50 mg/kg i.p. group; for Blood Glucose Day 4: Day 4, fasting glucose, 50 mg/kg i.p. once a day
Method: Ob/ob mice (10 weeks old, n=3) are intraperitoneally (i.p.) injected with 100 μL of a solution containing 0 (vehicle), 10 or 50 mg/kg of a test compound once a day for a total of 5 days. Fasting glucose is measured at baseline and 10 hrs after the administration of the test compound. Glucose levels are measured in blood samples drawn from the tail vein using the OneTouch Ultra 2 Meter (LifeScan, Inc.).

Compound	EC50 (SERCA)	Blood Glucose Day 0 (Ob/ob mice)	Blood Glucose Day 4 (Ob/ob mice)
Cc1ccc2cccc(C(=O)Nc3cc(Br)cs3)c2n1 [Compound B1]	1.2 µM	318 mg/dL	333 mg/dL
Cc1ccc2cccc(C(=O)Nc3ccc(Br)s3)c2n1 [Compound B2]	1 µM	320 mg/dL	215 mg/dL
Cc1ccc2cccc(C(=O)Nc3ccc(OC(C)C)cc3)c2n1 [Compound A1, N-(4-Isopropoxyphenyl)-2-methylquinoline-8-carboxamide]	0.6 µM	319 mg/dL	348 mg/dL

— patent publication US10383868B2, “Quinoline containing compounds and their use for treating endoplasmic reticulum stress-related diseases” (priority 2015, dated 2019)
